Key:
Conditions in all cases: after 10, 20, 40 and 60 minutes at all dilutions 1:100 to 1:800
[1] = tested on: Ps. Aeruginosa; assay: Antimicrobial activity by agar dilution, Ps. Aeruginosa; format: cell-based, Pseudomonas aeruginosa
Procedure: (§1) The antimicrobial properties of the synthesized compound 9-(2-hydroxyquinolin-3-yl)-10-(2-hydroxyethyl)-3,3,6,6-tetramethyl-3,4,6,7,9,10-hexahydroacridine1,8(2H,5H)-dione were studied by the method of agar dilution. Test solutions of each compound were prepared in a concentration of 1% using dimethylformamide as a solvent. Then they were diluted in a physiological solution to obtain the final experimental dilutions 1:100, 1:200, 1:400, and 1:800. The effect of these substances were compared with furacillin in a controllable study. The testing microbes used were gram positive bacteria St. Aereus, gram negative bacteria E. Coli and Ps. Aeruginosa, and Candida albicans fungi. The experiments used for this survey were meat-pentonlu agar (EPA) for cultivation of bacteria and Saburo environment for fungi. Each experiment used 1 ml of test solution on each plate 500 min. Add 2 drops of emulsified with microbes feel. All experimental samples were taken from the agar after 10, 20, 40, 60 minutes in the environment on the basis of Patrk planted. Bacteria were cultivated at a temperature of 37° C. for 1 day and the mushroom was kept in a thermostat for 2 hours at a temperature of 28° C. Then the results were checked.

[2] = tested on: Candida albicans; assay: Antimicrobial activity by agar dilution, Candida albicans; format: cell-based
Procedure: as §1

[3] = tested on: E. Coli; assay: Antimicrobial activity by agar dilution, E. Coli; format: cell-based, Escherichia coli
Procedure: as §1

[4] = tested on: St. Aereus; assay: Antimicrobial activity by agar dilution, St. Aereus; format: cell-based, Staphylococcus aureus
Procedure: as §1

Measured: inhibition activity (in words)

CC1(C)CC(=O)C2=C(C1)N(CCO)C1=C(C(=O)CC(C)(C)C1)C2c1cc2ccccc2nc1O [9-(2-hydroxyquinolin-3-yl)-10-(2-hydroxyethyl)-3,3,6,6-tetramethyl-3,4,6,7,9,10-hexahydroacridine1,8(2H,5H)-dione]
highest inhibition activity: all assays above

— patent US11970478B1, “9-(2-hydroxyquinolin-3-yl)-10-(2-hydroxyethyl)-3,3,6,6-tetramethyl-3,4,6,7,9,10-hexahydroacridine1,8(2H,5H)-dione as an antimicrobial compound” (KING FAISAL UNIVERSITY, priority 2023, dated 2024)
